In the supplement of paper PMC10307832:

What was measured:
Assay in all cases: relative viability (nuclei count vs DMSO), 5 days (fraction); higher = more cells survive
Tozasertib + Bortezomib = compound: Cc1cc(Nc2cc(N3CCN(C)CC3)nc(Sc3ccc(NC(=O)C4CC4)cc3)n2)n[nH]1 [Tozasertib] + CC(C)C[C@H](NC(=O)[C@H](Cc1ccccc1)NC(=O)c1cnccn1)B(O)O [Bortezomib] (partner 0.002 µM)
Method in brief: (§1)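 For relative viability, nuclei counts in treated wells were divided by those in vehicle wells. Lung cancer cell lines had been pin-tool dosed in 1536-well plates the day after seeding and cultured for 5 days, then fixed and stained in one step (final 0.05% Triton X-100, 1% formaldehyde, 1 ug/ml Hoechst) and imaged at 4×. Doses were one drug alone or a fixed anchor-drug dose plus five library-drug doses (not always all listed) in √10 steps, and values are duplicate-plate medians.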

Tozasertib + Navitoclax = compound: Cc1cc(Nc2cc(N3CCN(C)CC3)nc(Sc3ccc(NC(=O)C4CC4)cc3)n2)n[nH]1 [Tozasertib] + CC1(C)CCC(c2ccc(Cl)cc2)=C(CN2CCN(c3ccc(C(=O)NS(=O)(=O)c4ccc(N[C@H](CCN5CCOCC5)CSc5ccccc5)c(S(=O)(=O)C(F)(F)F)c4)cc3)CC2)C1 [Navitoclax] (partner 0.5 µM)
Method in brief: as §1

Tozasertib + Crizotinib = compound: Cc1cc(Nc2cc(N3CCN(C)CC3)nc(Sc3ccc(NC(=O)C4CC4)cc3)n2)n[nH]1 [Tozasertib] + C[C@@H](Oc1cc(-c2cnn(C3CCNCC3)c2)cnc1N)c1c(Cl)ccc(F)c1Cl [Crizotinib] (partner 1 µM)
Method in brief: as §1

Tozasertib + Vorinostat = compound: Cc1cc(Nc2cc(N3CCN(C)CC3)nc(Sc3ccc(NC(=O)C4CC4)cc3)n2)n[nH]1 [Tozasertib] + O=C(CCCCCCC(=O)Nc1ccccc1)NO [Vorinostat] (partner 1 µM)
Method in brief: as §1

Tozasertib + Olaparib = compound: Cc1cc(Nc2cc(N3CCN(C)CC3)nc(Sc3ccc(NC(=O)C4CC4)cc3)n2)n[nH]1 [Tozasertib] + O=C(c1cc(Cc2n[nH]c(=O)c3ccccc23)ccc1F)N1CCN(C(=O)C2CC2)CC1 [Olaparib] (partner 8 µM)
Method in brief: as §1

Row | Cell Line | relative viability (Tozasertib + Bortezomib; first compound 0.004 µM) | relative viability (Tozasertib + Bortezomib; first compound 0.01265 µM) | relative viability (Tozasertib + Bortezomib; first compound 0.04 µM) | relative viability (Tozasertib + Navitoclax; first compound 0.004 µM) | relative viability (Tozasertib + Navitoclax; first compound 0.01265 µM) | relative viability (Tozasertib + Navitoclax; first compound 0.04 µM) | relative viability (Tozasertib + Navitoclax; first compound 0.1265 µM) | relative viability (Tozasertib + Crizotinib; first compound 0.004 µM) | relative viability (Tozasertib + Crizotinib; first compound 0.01265 µM) | relative viability (Tozasertib + Crizotinib; first compound 0.04 µM) | relative viability (Tozasertib + Crizotinib; first compound 0.1265 µM) | relative viability (Tozasertib + Vorinostat; first compound 0.004 µM) | relative viability (Tozasertib + Vorinostat; first compound 0.01265 µM) | relative viability (Tozasertib + Vorinostat; first compound 0.04 µM) | relative viability (Tozasertib + Vorinostat; first compound 0.1265 µM) | relative viability (Tozasertib + Olaparib; first compound 0.004 µM) | relative viability (Tozasertib + Olaparib; first compound 0.01265 µM) | relative viability (Tozasertib + Olaparib; first compound 0.04 µM) | relative viability (Tozasertib + Olaparib; first compound 0.1265 µM) | relative viability (Tozasertib + Bortezomib; first compound 0.1265 µM)
1 | 201T | 1.1 | 1.06 | 1.07 | 1.16 | 1.22 | 1.23 | 1.16 | 1.02 | 1.05 | 1.06 | 1.01 | 0.939 | 0.902 | 0.968 | 0.946 | 0.846 | 0.838 | 0.849 | 0.814 | –
2 | A549 | – | – | – | 1.26 | 1.29 | 1.14 | 0.179 | 0.839 | 0.745 | 0.393 | 0.0848 | – | – | – | – | 0.2 | 0.324 | 0.313 | 0.13 | –
3 | A-427 | 0.983 | 0.942 | 1.02 | – | 0.979 | 0.995 | 0.755 | 0.882 | 0.985 | 0.788 | 0.469 | 0.858 | 0.817 | 0.804 | 0.489 | 0.769 | 0.645 | 0.734 | 0.47 | 0.812
4 | ABC-1 | 0.278 | 0.282 | 0.3 | – | – | – | – | 1.21 | 0.992 | 0.565 | 0.249 | 1.35 | 1 | 0.767 | 0.306 | 0.832 | 0.704 | 0.394 | 0.613 | 0.231
5 | BEN | 1.01 | 0.79 | 0.925 | 0.0692 | 0.0723 | 0.0504 | 0.0587 | 0.91 | 0.921 | 0.907 | 0.727 | 0.551 | – | 0.59 | 0.398 | – | 1.09 | 0.931 | 0.956 | 0.571
6 | CAL-12T | 1.2 | 0.785 | 0.962 | 1.33 | 1.14 | 1.31 | 1.08 | 0.823 | 0.635 | 0.454 | 0.325 | 0.694 | 0.677 | 0.751 | 0.305 | – | 0.741 | 0.769 | 0.55 | 0.362
7 | COR-L23 | 0.986 | 0.889 | 0.888 | 1 | 0.897 | 0.954 | 0.757 | 0.695 | 0.667 | 0.453 | 0.412 | 0.522 | 0.403 | 0.393 | 0.198 | 0.375 | 0.378 | 0.3 | 0.299 | 0.864
8 | COR-L 105 | 0.879 | 0.815 | 0.943 | 0.787 | 0.644 | 0.932 | 0.542 | – | 0.765 | 0.771 | 0.458 | 0.998 | – | 0.936 | 0.512 | 0.681 | 0.725 | 0.716 | 0.754 | 0.291
9 | ChaGo-K-1 | 1.17 | 0.953 | 1.14 | 1.13 | 0.946 | 1.2 | 0.3 | 1.19 | 1.12 | 0.957 | 0.331 | 0.75 | 0.683 | 0.714 | 0.265 | 0.4 | 0.386 | 0.407 | 0.372 | 0.31
10 | EKVX | 1.19 | 0.993 | – | 0.932 | 0.939 | 1.06 | 0.914 | 0.766 | – | 0.932 | 0.802 | 0.665 | 0.543 | 0.637 | 0.613 | 0.93 | 0.773 | 0.798 | 0.688 | 1.05
11 | EMC-BAC-2 | 1.09 | 1.05 | 0.96 | 1.18 | 1.14 | 1.25 | 0.812 | 0.803 | 0.704 | 0.461 | 0.23 | 0.438 | 0.233 | 0.242 | 0.15 | 0.511 | 0.437 | 0.414 | 0.366 | –
12 | EPLC-272H | 0.774 | 0.804 | 0.775 | 1.1 | 1.17 | 1.08 | – | 0.851 | 1.03 | 0.823 | – | 0.521 | – | 0.318 | 0.287 | 0.729 | – | – | 0.341 | –
13 | H3255 | 0.789 | 0.7 | 0.823 | 0.336 | 0.594 | 0.569 | 0.463 | 0.801 | 0.765 | 1.01 | 0.769 | 0.86 | 0.676 | – | 0.712 | 0.554 | 0.564 | 0.602 | 0.503 | 0.549
14 | HARA | 1.18 | 1 | 1.01 | 1.17 | 1.07 | 1.15 | 1.07 | – | 0.984 | 0.776 | 0.14 | 0.674 | 0.427 | 0.507 | 0.419 | 0.821 | 1.2 | 0.983 | 0.349 | 0.664
15 | HCC-15 | 0.999 | – | – | 0.692 | 0.692 | 0.768 | 0.641 | 0.872 | 0.85 | 0.738 | 0.773 | 0.86 | 0.735 | 0.923 | – | 0.715 | – | 0.688 | 0.597 | 0.851
16 | HCC-44 | 0.866 | 0.942 | 1.04 | 1.04 | 0.977 | 0.985 | 0.955 | 0.861 | 0.891 | 0.801 | 0.705 | 1.09 | 1 | 1.04 | 0.901 | 0.961 | 0.924 | 1.02 | 0.914 | 0.786
17 | HCC-78 | 0.504 | – | – | 0.822 | 0.633 | – | 0.539 | 0.333 | 0.324 | 0.356 | 0.288 | 0.445 | 0.386 | 0.45 | 0.373 | 0.885 | 0.705 | 0.98 | 0.758 | 0.497
